Assay results from patent US12630501B2, “Anti-fibrotic compounds and use thereof” (HADASIT MEDICAL RESEARCH SERVICES AND DEVELOPMENT LTD., priority 2019, dated 2026).

How the values were obtained:
FLIP = FLIP protein by Western blot and flow cytometry in IPF-lung myofibroblasts; assay type: cell-based, human; settings: CMH 30 μM, 72 h
Procedure: Human lung myofibroblasts Differentiated fibroblasts from IPF-lungs and controls from patient lung biopsies performed for tumor diagnosis were obtained under a protocol detailed in Wallach-Dayan et al., J. Autoimmun. 59: 67-76, 2015. LL 97A (AlMy) (ATCC® CCL-191™)-IPF-lung, and LL 24 (ATCC® CCL-151™)-normal lung fibroblast cell lines were used.
FLIP protein in lung myofibroblasts Standard WB and flow cytometry were performed as described in Cohen et al., Am. J. Respir. Cell Mol. Biol. 40: 231-238, 2009.
FLIP downregulation from an OD of 1.85 to 0.49 (about 3.5-fold) was detected in WB (FIG. 4F), and a […] from a mean fluorescence intensity (MFI)=10^3 to only 10^1 was detected with flow cytometry (FIG. 4G). Thus, SIRT1-mediated Ku70-deacetylation stabilizes IPF-lung myofibroblast FLIP via Ku70/FLIP complex. This effect of CMH on Ku70 further disrupts Ku70/FLIP complex and destabilizes FLIP in IPF-lung myofibroblasts.
IPF cell line ATCC-191 (0.5×10^6), were exposed in culture (10% DMEM) to a compound of Formula 6 (1 or 3 μM) vs. 4% DMSO (vehicle) for 16 h. Ku70 immunoprecipitation with subsequent pan-acetyl (FIG. 8A) and immunoblots of Ku70 with anti-Ku70 mAb (FIG. 8B) or FLIP with anti-FLIP mAb (FIG. 8C) were measured. […] IPF-lung myofibroblasts decreased FLIP expression from an OD of 1.00 to 0.51 (about twofold, FIG. 8C).
IPF cell line ATCC-191 (0.5×10^6), were exposed in culture (10% DMEM) to a compound of Formula 12 (1 μM), vs. 4% DMSO (vehicle) for 16 h. Immunoblots of FLIP with anti-FLIP mAb were performed (FIG. 9). […] Thus, the compound of Formula 12 attenuates FLIP stabilization in IPF-lung myofibroblast.

[1] = test system: BLM-treated C57BL/6 WT mice; settings: prior finding restated; cited from earlier work
HDAC1 = HDAC1 (Homo sapiens, UniProt Q13547); settings: prostate cancer cells; cited from earlier work
HDAC1, sequence (Q13547 whole entry, species assumed): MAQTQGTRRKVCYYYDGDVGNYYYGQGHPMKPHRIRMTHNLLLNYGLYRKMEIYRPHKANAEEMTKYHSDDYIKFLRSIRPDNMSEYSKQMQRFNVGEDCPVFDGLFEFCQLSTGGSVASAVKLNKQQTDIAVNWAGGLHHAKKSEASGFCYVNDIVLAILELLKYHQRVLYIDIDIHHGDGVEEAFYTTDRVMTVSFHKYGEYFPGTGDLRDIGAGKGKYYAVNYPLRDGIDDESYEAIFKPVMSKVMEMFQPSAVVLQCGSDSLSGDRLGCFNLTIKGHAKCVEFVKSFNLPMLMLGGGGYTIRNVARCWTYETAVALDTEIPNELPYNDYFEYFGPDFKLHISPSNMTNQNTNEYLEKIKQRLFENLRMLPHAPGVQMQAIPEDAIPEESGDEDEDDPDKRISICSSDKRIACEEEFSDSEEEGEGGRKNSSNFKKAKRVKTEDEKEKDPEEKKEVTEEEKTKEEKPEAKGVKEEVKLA

HDAC7 = target: T1, HDAC7 (Homo sapiens, UniProt Q8WUI4); settings: prostate cancer cells; cited from earlier work
T1 sequence (Q8WUI4 1-952): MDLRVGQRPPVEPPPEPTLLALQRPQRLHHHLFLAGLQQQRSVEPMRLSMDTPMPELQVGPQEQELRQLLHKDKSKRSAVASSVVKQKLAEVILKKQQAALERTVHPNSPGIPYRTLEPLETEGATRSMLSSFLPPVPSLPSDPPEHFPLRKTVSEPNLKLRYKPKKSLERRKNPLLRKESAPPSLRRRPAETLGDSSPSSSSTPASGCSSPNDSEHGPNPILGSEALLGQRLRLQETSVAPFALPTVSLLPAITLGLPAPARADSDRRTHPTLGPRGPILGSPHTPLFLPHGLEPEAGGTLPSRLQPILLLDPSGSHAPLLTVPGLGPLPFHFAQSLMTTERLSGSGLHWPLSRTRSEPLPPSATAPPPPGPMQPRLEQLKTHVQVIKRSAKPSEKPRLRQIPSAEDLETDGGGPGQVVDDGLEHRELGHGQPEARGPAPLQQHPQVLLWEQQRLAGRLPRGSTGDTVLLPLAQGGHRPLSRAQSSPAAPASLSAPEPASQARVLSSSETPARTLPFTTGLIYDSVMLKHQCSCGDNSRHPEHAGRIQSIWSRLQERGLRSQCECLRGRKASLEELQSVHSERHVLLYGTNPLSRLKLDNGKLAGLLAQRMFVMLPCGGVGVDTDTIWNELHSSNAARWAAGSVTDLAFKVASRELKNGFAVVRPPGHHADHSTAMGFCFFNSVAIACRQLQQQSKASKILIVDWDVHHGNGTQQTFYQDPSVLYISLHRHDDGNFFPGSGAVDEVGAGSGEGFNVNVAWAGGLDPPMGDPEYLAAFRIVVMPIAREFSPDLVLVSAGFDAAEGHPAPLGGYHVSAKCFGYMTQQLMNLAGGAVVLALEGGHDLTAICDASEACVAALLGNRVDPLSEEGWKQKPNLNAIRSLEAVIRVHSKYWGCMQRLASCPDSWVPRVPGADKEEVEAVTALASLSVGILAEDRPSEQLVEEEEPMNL

IPF cell line ATCC191 = experiment: Total cell-lysate pan-acetyl immunoblot; assay type: cell-based, human; settings: CMH 30 μM; vehicle 0.62
Procedure: IPF cell line ATCC191 and Normal cell line ATCC151 (0.5×10^6, 191 and 151, respectively), were cultured (10% DMEM) and total cell acetylations was compared. IPF cell line ATCC191 were further exposed in culture (10% DMEM) to CMH (30 μM, vs. 4% DMSO (vehicle)). Total cell-lysate immunoblots with subsequent pan-acetyl in IPF-lung vs. normal-lung myofibroblasts (191 vs. 151) was measured (FIG. 7A). IPF-lung myofibroblasts treated with CMH were compared to control treatment with vehicle (FIG. 7B). […] Thus, CMH inhibits IPF cell proteins-deacetylation and normalized it.

HDAC4 = HDAC4 (Homo sapiens, UniProt P56524); settings: prostate cancer cells; cited from earlier work
HDAC4, sequence (P56524 whole entry, species assumed): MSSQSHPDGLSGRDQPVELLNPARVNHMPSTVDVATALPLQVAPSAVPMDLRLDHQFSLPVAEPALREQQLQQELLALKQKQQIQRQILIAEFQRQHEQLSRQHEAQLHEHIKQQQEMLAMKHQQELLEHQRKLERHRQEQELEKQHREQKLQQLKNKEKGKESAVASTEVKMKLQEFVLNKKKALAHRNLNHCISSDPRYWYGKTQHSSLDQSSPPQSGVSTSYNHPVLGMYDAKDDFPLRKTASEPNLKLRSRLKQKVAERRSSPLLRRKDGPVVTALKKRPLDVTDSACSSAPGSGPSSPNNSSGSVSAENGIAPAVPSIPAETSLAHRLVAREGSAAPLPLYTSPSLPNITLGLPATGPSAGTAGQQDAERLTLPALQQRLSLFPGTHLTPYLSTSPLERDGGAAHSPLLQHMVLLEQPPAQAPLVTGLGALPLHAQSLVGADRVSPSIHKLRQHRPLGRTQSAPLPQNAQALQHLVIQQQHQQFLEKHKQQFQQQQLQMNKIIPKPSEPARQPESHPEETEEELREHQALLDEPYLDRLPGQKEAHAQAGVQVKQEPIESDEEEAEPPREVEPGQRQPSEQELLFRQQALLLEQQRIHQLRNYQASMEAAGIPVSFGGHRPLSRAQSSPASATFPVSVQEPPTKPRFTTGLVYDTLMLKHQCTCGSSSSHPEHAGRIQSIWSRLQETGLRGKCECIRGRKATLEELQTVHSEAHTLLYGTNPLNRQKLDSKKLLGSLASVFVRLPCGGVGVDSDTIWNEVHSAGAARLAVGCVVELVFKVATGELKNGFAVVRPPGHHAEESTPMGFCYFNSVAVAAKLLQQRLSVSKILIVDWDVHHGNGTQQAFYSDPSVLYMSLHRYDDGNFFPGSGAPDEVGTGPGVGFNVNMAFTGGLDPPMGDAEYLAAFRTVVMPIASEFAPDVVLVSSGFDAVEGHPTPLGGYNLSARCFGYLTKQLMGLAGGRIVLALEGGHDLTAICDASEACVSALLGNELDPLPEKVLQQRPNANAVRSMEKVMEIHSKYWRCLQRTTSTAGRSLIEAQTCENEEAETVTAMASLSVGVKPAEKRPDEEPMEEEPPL

## Cc1cc(Cl)ccc1OCCCC(=O)NO [CMH, 4-(4-chloro-2-methylphenoxy)-N-hydroxybutanamide]
FLIP
  FLIP downregulation in WB: about 3.5 fold
  FLIP reduction by flow cytometry: 60%
FLIP; from 1.85
  FLIP OD in WB: 0.49 OD
FLIP; from 10^3
  FLIP mean fluorescence intensity (MFI), flow cytometry: 10^1
[1]
  Lung fibrosis in in-vivo model, C57BL/6 mice lungs following bleomycin instillation: attenuate lung fibrosis
HDAC1
  Inhibition of HDAC1: not inhibited
HDAC7
  Inhibition of HDAC7: not inhibited
IPF cell line ATCC191
  Protein acetylation, optical density ratio to GAPDH (OD) in pan-acetyl immunoblots: 1.77 OD
HDAC4
  Inhibition of HDAC4: not inhibited
